“Also recorded” adds a separate entry of the source. Like-named read-outs stand apart in the source and are kept apart here.
Experiments:
[1] = molecular target: T1, RARα (Homo sapiens, UniProt P10276); experiment: RARα activation (transactivation); type: cell-based
T1 sequence (P10276 1-462): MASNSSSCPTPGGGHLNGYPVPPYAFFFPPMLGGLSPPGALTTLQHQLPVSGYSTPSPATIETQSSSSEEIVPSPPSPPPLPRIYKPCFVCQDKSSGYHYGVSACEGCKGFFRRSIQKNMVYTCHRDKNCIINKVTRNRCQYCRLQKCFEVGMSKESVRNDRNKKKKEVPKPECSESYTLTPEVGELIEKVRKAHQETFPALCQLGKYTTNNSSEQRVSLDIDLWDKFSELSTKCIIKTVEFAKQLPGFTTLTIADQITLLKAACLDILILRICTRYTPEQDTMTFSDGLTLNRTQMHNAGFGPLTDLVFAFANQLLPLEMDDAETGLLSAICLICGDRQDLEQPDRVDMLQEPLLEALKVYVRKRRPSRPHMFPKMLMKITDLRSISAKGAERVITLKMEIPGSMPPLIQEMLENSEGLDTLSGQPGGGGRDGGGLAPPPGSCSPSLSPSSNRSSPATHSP
Text: Methods essentially as described in those publications were used to determine the binding and transactivation properties of retinoids reported in the Examples herein.

[2] = test system: mouse B cell; experiment: Inhibition of LPS-induced mouse B cell proliferation (3H-thymidine incorporation); type: cell-based
Method: Single cell suspensions of mouse spleen were set up in culture in flatbottomed 96 well Microtiter trays, 0.2 ml/well of a 2×10^5 /ml cell suspension in IMDM supplemented with 10% foetal calf serum, HEPES, antibiotics and 50 μM 2-mercaptoethanol. The specific B cell mitogen E. coli lipopolysaccharide (DIFCO) (LPS) was added at 50μg/ml. Cultures were incubated at 37° C. in a humidified atmosphere and 5% CO2.
The retinoids to be tested were first titrated in triplicate from 10 nM to 10 μM and left throughout the whole culture period. […] Cyclosporin A (Sandoz AG) was used as a reference compound (from 1 nM to 1 μM).
The cultures were then harvested on glass fiber filters and the radioactivity imcorporated into DNA measured in a β-liquid scintillation counter (Betaplate, Wallac Oy, Turku, Finland).
The results are expressed as % of the response of untreated cultures. […] Retinoids were added to the cultures at the beginning of the culture period.

[3] = test system: HL-60 cells; experiment: HL-60 differentiation (NBT reduction); type: cell-based, human
Method: Under the influence of retinoids, HL-60 cells (a human myeloid leukemia cell line) differentiate into granulocytes. This differentiation of HL-60 cells into granulocytes is mediated by RARα, and so provides the basis for the use of retinoids to treat leukemia.
Retinoid-induced differentiation of HL-60 cells was assayed by measuring their oxidative burst potential via the reduction of NBT (Nitroblueterstazolium) [Pick et al., J. Reticuloendothelial Soc., 30:581-593 (1981)].
HL-60 cells were maintained in RPMI 1640 medium supplemented with 10% FCS, 2mM L-glutamine, ImM sodium pyruvate, 1% non-essential amino acids, 50 U/ml penicillin and 50 μg/ml streptomycin (=RPMI/FCS).
30,000 cells/[…] of RPMI/FCS were seeded into flat-bottomed microtiter wells. 10 μl of retinoids diluted in complete medium were added at the same time to yield final concentrations betweeen 10^-11 and 10^-6 M (stock solutions of 10^-2 M in ethanol were kep at -20° C. and protected from light). After 3 days, the medium was removed with a multichannel pipette and replaced with 100 μl of NBT solution (1 mg/ml in PBS with 200 nM phorbol myristate acetate (PMA). Following an additional hour incubation at 37° C. the NBT solution was removed and 100 μl of 10% SDS in 0.01 N HCl was added. The amount of the reduced NBT was quantified photometrically at 540 nm using an automated plate reader. The mean of 3 wells was calculated. S.E.M. were between 5 and 10%.

[4] = test system: human sebaceous cells; experiment: Antiproliferative activity on human sebocytes in vitro; type: cell-based
Method: Sebaceous cells were isolated from adult human sebaceous glands by a combination of enzymatic and mechanical methods (Doran et al., 1991). The cells were cultured in Iscove's medium containing 10% fetal calf serum and 4 μg/ml dexamethasone on a layer of growth-arrested 3T3 mouse fibroblasts. Cells were plated in medium without the test compound and then given test compound in fresh medium 24-48 hours after the initial plating. The cultures were given fresh medium, containing the test compound, every 48 hours. On the day of harvesting, the cultures were rinsed with 0.03% EDTA in PBS, to remove only the 3T3 fibroblasts. followed by incubation in 0.05% trypsin/0.03% EDTA. The cells were suspended, mixed vigorously to prepare a single cell suspension and counted in a hemocytometer.
Stock solutions of compounds were made up as 10^-2 M solutions in 100% DMSO and stored at -20° C. in the dark. Compounds in solution were brought to room temperature and used by diluting directly into complete medium to the appropriate concentration.
The compounds of Example 12, Example 2, and Example 4 were tested for their effects on inhibiting the proliferation of first passage human sebaceous cells in vitro after 10 days of exposure to drug.

[5] = test system: Rhino mouse utricles; experiment: Rhino mouse utricle reduction activity; type: in vivo, Rhino mice; details: topical; for Utricle Size: 3 weeks; for Utricle size % Change from Control: ns = not statistically significant, others p<0.05
Method: Compounds were dissolved in 100% acetone and stored at 4° C. for the duration of the experiment under nitrogen. […] One day after the last dose, the mice were sacrificed by CO2 inhalation. […] The epidermis was then separated from the dermis.
The samples were kept in each of the above solutions for 2 hours. The skin samples were removed from the xylene and mounted on glass microscope slides. Image analysis, using the Ultimage image analysis software, was used to determine the mean diameter and area of utricles. Approximately 5 fields per sample were examined, for an average of 150 utricles per mouse measured.

EC50 ([1]; Table 1, read-out: Activation ED50, RARα): > 10 µM | EC50 ([1]; Table 2, read-out: RARα activation ED50): > 10 µM
Compound: CC1=C(/C=C/C2=C(/C=C/C(C)=C/C(=O)O)CCCC2)C(C)(C)CCC1 [Example 4, (2E,4E)-3-Methyl-5-(2-((E)-2(2,6,6-trimethyl-1-cyclohexen-1-yl)ethenyl)-1-cyclohexen-1-yl)-2,4-pentadienoic acid]
potency relative to all-trans RA ([2]; LPS induced mouse B cell proliferation): 1/100 | IC50 ([2]; Mus musculus, B-cell, 72 h, alone, FIG. 4, day 3): 100 nM | effect on B cell response at low doses ([2]; day 4, low doses (=IC50 at day 3)): slightly enhancing the response | potentiation of inhibitory activity of all-trans RA on mouse B cell proliferation ([2]; in combination with all-trans RA): potentiated the inhibitory activity of all-trans RA; also recorded: potentiates the effect of all-trans RA | inhibition by combination with 1 nM RA ([2]; with 1 nM RA, day 4, FIG. 6): inhibition on the order of that induced by 10 nM RA | potentiation of effect of 1 nM all-trans RA ([2]; with 1 nM all-trans RA, day 3, FIG. 5): potentiation of the effect of 1 nM RA to the level observed with 10 nM RA | excess RXR ligand over all-trans RA for potentiation ([2]; with all-trans RA): 10 to 30 fold | magnitude of the potentiation ([2]; with all-trans RA): roughly tenfold | activity as inducer of HL-60 differentiation compared with all-trans retinoic acid ([3]; FIG. 1): clearly less active | HL-60 differentiation activity by itself at potentiating concentrations ([3]; FIGS. 2 and 3, alone): not active by itself | activity as inducer of HL-60 differentiation ([3]; ×10^-6 M, alone): virtually inactive | inhibition of sebocyte proliferation (in words) [4]: poor dose response curve; also recorded: much weaker than 13-cis-retinoic acid | IC50 ([4]; Homo sapiens, 240 h, first passage cells, 10 days of exposure, read-out: Inhibition of human sebaceous cell proliferation in vitro IC50): > 1000 nM | Utricle Size ([5]; 0.1 μg/day): 9843 ± 565 μm^2 / utricle | Utricle size % Change from Control ([5]; 0.1 μg/day): +1% | Utricle Size ([5]; 1 μg/day): 9491 ± 507 μm^2 / utricle | Utricle size % Change from Control ([5]; 1 μg/day): -3% | Utricle Size ([5]; 10 μg/day): 8951 ± 964 μm^2 / utricle | Utricle size % Change from Control ([5]; 10 μg/day): -8% | Utricle Size ([5]; 100 μg/day): 5916 ± 992 μm^2 / utricle | Utricle size % Change from Control ([5]; 100 μg/day): -39%
